Results on 38 compounds are retold here after patent US10981917B2, “Heterocyclic compound, its preparation method, and pharmaceutical composition comprising the same” (Daewoong Pharmaceutical Co., Ltd., priority 2017, dated 2021).

The structures appear in SMILES notation. A value given as a limit tells only on which side of the number the result lay.

The experiment has as its target PRS (prolyl-tRNA synthetase) protein, PRS portion of EPRS (Homo sapiens (Human), UniProt P07814). Put plainly: PRS enzyme activity inhibition experiment ([3H]proline, liquid scintillation). Format: biochemical. The settings on record: purified PRS protein, 37° C. for 5 to 10 minutes. Summed up: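 Values are % inhibition or IC50 ranges (A ≤100 nM, B 100–500 nM, C ≥500 nM) from [3H]proline incorporation measured by liquid scintillation. PRS portion of human EPRS, reacted 5–10 min at 37 °C in pH 7.4 phosphate buffer containing 5 mM ATP and tRNA, compound at 1 μM.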

Chain of PRS (prolyl-tRNA synthetase) protein, PRS portion of EPRS (P07814 1007-1512): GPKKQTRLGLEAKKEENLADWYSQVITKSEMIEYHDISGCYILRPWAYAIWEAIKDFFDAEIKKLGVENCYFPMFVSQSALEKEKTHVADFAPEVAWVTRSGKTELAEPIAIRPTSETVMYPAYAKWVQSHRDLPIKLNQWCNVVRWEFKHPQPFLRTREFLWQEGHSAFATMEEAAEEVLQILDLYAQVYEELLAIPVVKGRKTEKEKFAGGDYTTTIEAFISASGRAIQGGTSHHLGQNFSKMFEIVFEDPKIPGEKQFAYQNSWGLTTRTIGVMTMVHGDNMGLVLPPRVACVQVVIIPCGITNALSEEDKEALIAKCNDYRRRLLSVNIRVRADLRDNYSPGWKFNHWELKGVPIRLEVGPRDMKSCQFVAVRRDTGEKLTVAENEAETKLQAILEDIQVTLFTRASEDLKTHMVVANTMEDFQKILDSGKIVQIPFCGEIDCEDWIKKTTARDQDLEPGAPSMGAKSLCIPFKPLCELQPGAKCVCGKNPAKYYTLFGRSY

Take `Nc1nc2cc(Cl)c(Cl)cc2n1CCC[C@H]1NCCC[C@@H]1O` [Example 148, (2R,3S)-2-(3-(2-amino-5,6-dichloro-1H-benzo[d]imidazol-1-yl)propyl)piperidin-3-ol]: the half-maximal inhibitory concentration (IC50) lay within 100 to 500 nM.

Compound `O[C@H]1CCCN[C@@H]1/C=C/Cn1cnc2nc(Br)ccc21` [Example 184, (2R,3S)-2-((E)-3-(5-bromo-1H-imidazo[4,5-b]pyridin-1-yl)prop-1-en-1-yl)piperidin-3-ol] gave an IC50 of no less than 500 nM. To `O=[N+]([O-])c1c(Br)ccc2c1ncn2C/C=C/[C@H]1NCCC[C@@H]1O` [Example 176, (2R,3S)-2-((E)-3-(5-bromo-4-nitro-1H-benzo[d]imidazol-1-yl)prop-1-en-1-yl)piperidin-3-ol] belongs no less than 500 nM. As for `O[C@H]1CCCN[C@@H]1CCCn1cnc2cc(Cl)cc(-c3csc(C4CCOCC4)n3)c21` [Example 103, (2R,3S)-2-(3-(5-chloro-7-(2-(tetrahydro-2H-pyran-4-yl)thiazol-4-yl)-1H-benzo[d]imidazol-1-yl)propyl)piperidin-3-ol], the 50% inhibitory concentration (IC50) is no less than 500 nM. Compound `O[C@H]1CCCN[C@@H]1/C=C/Cn1cnc2cc(Cl)c(Cl)cc21` [Example 166, (2R,3S)-2-((E)-3-(5,6-dichloro-1H-benzo[d]imidazol-1-yl)prop-1-enyl)piperidin-3-ol] gave a half-inhibitory concentration (IC50) of 100 to 500 nM. `O[C@H]1CCCN[C@@H]1/C=C/Cn1cnc2c(Cl)c(Cl)ccc21` [Example 174, (2R,3S)-2-((E)-3-(4,5-dichloro-1H-benzo[d]imidazol-1-yl)prop-1-en-1-yl)piperidin-3-ol] had an IC50 of no more than 100 nM.

For `O[C@H]1CCCN[C@@H]1CCCn1cnc2cc(Cl)cc(Br)c21` [Example 69, (2R,3S)-2-(3-(7-bromo-5-chloro-1H-benzo[d]imidazol-1-yl)propyl)piperidin-3-ol], the IC50 is no more than 100 nM. With `CC(C)Cn1c(=O)n(C)c(=O)c2c1ncn2CCC[C@H]1NCCC[C@@H]1O` [Example 165, 7-(3-((2R,3S)-3-hydroxypiperidin-2-yl)propyl)-3-isobutyl-1-methyl-1H-purine-2,6(3H,7H)-dione], the IC50 is no less than 500 nM.

The compound `O[C@H]1CCCN[C@@H]1CCCn1cnc2cc(Cl)cc(C3=CCOCC3)c21` [Example 94, (2R,3S)-2-(3-(5-chloro-7-(3,6-dihydro-2H-pyran-4-yl)-1H-benzo[d]imidazol-1-yl)propyl)piperidin-3-ol] had a half-inhibitory concentration (IC50) of 100 to 500 nM.

In turn, `Cc1c(Cl)cnc2c1ncn2CCC[C@H]1NCCC[C@@H]1O` [Example 131, (2R,3S)-2-(3-(6-chloro-7-methyl-3H-imidazo[4,5-b]pyridin-3-yl)propyl)piperidin-3-ol] registered an IC50 of 100 to 500 nM.

As to `Cc1ccc2c(ncn2CCC[C@H]2NCCC[C@@H]2O)n1` [Example 121, (2R,3S)-2-(3-(5-methyl-1H-imidazo[4,5-b]pyridin-1-yl)propyl)piperidin-3-ol], the IC50 lay in the range of 100 to 500 nM. As for `O[C@H]1CCCN[C@@H]1/C=C/Cn1ccc2cccnc21` [Example 196, (2R,3S)-2-((E)-3-(1H-pyrrolo[2,3-b]pyridin-1-yl)prop-1-en-1-yl)piperidin-3-ol], the half-maximal inhibitory concentration (IC50) is no less than 500 nM. As for `O[C@H]1CCCN[C@@H]1CCCn1cnc2c(-c3cccc(Cl)c3)cccc21` [Example 21, (2R,3S)-2-(3-(4-(3-chlorophenyl)-1H-benzo[d]imidazol-1-yl)propyl)piperidin-3-ol], the figure is no less than 500 nM; as for `O[C@H]1CCCN[C@@H]1CCCn1cnc2c(F)c(Br)ccc21` [Example 47, (2R,3S)-2-(3-(5-bromo-4-fluoro-1H-benzo[d]imidazol-1-yl)propyl)piperidin-3-ol], 100 to 500 nM. To `CCN(C)c1ncnc2c1ncn2CCC[C@H]1NCCC[C@@H]1O` [Example 139, (2R,3S)-2-(3-(6-(ethyl(methyl)amino)-9H-purin-9-yl)propyl)piperidin-3-ol] belongs no less than 500 nM. With `CN(C)C(=O)c1cn(C/C=C/[C@H]2NCCC[C@@H]2O)c2ccc(Br)cc12` [Example 216, 5-bromo-1-((E)-3-((2R,3S)-3-hydroxypiperidin-2-yl)allyl)-N,N-dimethyl-1H-indole-3-carboxamide], the half-inhibitory concentration (IC50) was no less than 500 nM. As for `O[C@H]1CCCN[C@@H]1CCCn1cnc2cc(Cl)cc(N3CCCC3)c21` [Example 99, (2R,3S)-2-(3-(5-chloro-7-(pyrrolidin-1-yl)-1H-benzo[d]imidazol-1-yl)propyl)piperidin-3-ol], the figure is no more than 100 nM.

In turn, `COC(=O)c1cc(Br)c2c(c1)ncn2CCC[C@H]1NCCC[C@@H]1O` [Example 68, methyl 7-bromo-1-(3-((2R,3S)-3-hydroxypiperidin-2-yl)propyl)-1H-benzo[d]imidazole-5-carboxylate] displayed a 50% inhibitory concentration (IC50) of no less than 500 nM. As for `C/C(=C\[C@H]1NCCC[C@@H]1O)Cn1cnc2c(C)c(Br)ccc21` [Example 222, (2R,3S)-2-((E)-3-(5-bromo-4-methyl-1H-benzo[d]imidazol-1-yl)-2-methylprop-1-en-1-yl)piperidin-3-ol], the IC50 is no less than 500 nM. With `O[C@H]1CCCN[C@@H]1CCCn1cnc2nc(Cl)ccc21` [Example 117, (2R,3S)-2-(3-(5-chloro-1H-imidazo[4,5-b]pyridin-1-yl)propyl)piperidin-3-ol], the concentration for half-maximal inhibition (IC50) fell in the range of 100 to 500 nM. As for `OCc1nc2ccccc2n1CCC[C@H]1NCCC[C@@H]1O` [Example 145, (2R,3S)-2-(3-(2-(hydroxymethyl)-1H-benzo[d]imidazol-1-yl)propyl)piperidin-3-ol], the figure is no less than 500 nM; as for `O[C@H]1CCCN[C@@H]1CCCn1cnc2cc(Cl)cc(-c3cnc(C4CC4)s3)c21` [Example 100, (2R,3S)-2-(3-(5-chloro-7-(2-cyclopropylthiazol-5-yl)-1H-benzo[d]imidazol-1-yl)propyl)piperidin-3-ol], 100 to 500 nM; as for `O[C@H]1CCCN[C@@H]1CCCn1nc(-c2cnn(C(F)F)c2)c2cc(Cl)ccc21` [Example 157, (2R,3S)-2-(3-(5-chloro-3-(1-(difluoromethyl)-1H-pyrazol-4-yl)-1H-indazol-1-yl)propyl)piperidin-3-ol], no less than 500 nM. As for `Cc1c(Br)cnc2c1ncn2C/C=C/[C@H]1NCCC[C@@H]1O` [Example 186, (2R,3S)-2-((E)-3-(6-bromo-7-methyl-3H-imidazo[4,5-b]pyridin-3-yl)prop-1-en-1-yl)piperidin-3-ol], the IC50 fell in the range of 100 to 500 nM. To `O[C@H]1CCCN[C@@H]1CCCn1cnc2ccc(C(F)(F)F)cc21` [Example 15, (2R,3S)-2-(3-(6-(trifluoromethyl)-1H-benzo[d]imidazol-1-yl)propyl)piperidin-3-ol] belongs 100 to 500 nM; to `O[C@@H]1CCCN[C@H]1CCCn1cnc2c(Cl)c(Cl)ccc21` [Example 42, (2S,3R)-2-(3-(4,5-dichloro-1H-benzo[d]imidazol-1-yl)propyl)piperidin-3-ol], no less than 500 nM; to `O=[N+]([O-])c1ccc2c(ncn2CCC[C@H]2NCCC[C@@H]2O)c1Cl` [Example 77, (2R,3S)-2-(3-(4-chloro-5-nitro-1H-benzo[d]imidazol-1-yl)propyl)piperidin-3-ol], 100 to 500 nM.

Compound `OCc1nc2cc(Cl)c(Cl)cc2n1C/C(F)=C/[C@H]1NCCC[C@@H]1O` [Example 220, (2R,3S)-2-((Z)-3-(5,6-dichloro-2-(hydroxymethyl)-1H-benzo[d]imidazol-1-yl)-2-fluoroprop-1-en-1-yl)piperidin-3-ol] showed a half-inhibitory concentration (IC50) of no less than 500 nM. To `O[C@H]1CCCN[C@@H]1CCCn1cnc2cccc(-c3ccc(F)cc3)c21` [Example 28, (2R,3S)-2-(3-(7-(4-fluorophenyl)-1H-benzo[d]imidazol-1-yl)propyl)piperidin-3-ol] belongs 100 to 500 nM; to `O[C@H]1CCCN[C@@H]1CCCn1cnc2ccc(F)c(F)c21` [Example 50, (2R,3S)-2-(3-(6,7-difluoro-1H-benzo[d]imidazol-1-yl)propyl)piperidin-3-ol], 100 to 500 nM. To `O[C@H]1CCCN[C@@H]1CCCn1cnc2cc(F)cc(F)c21` [Example 58, (2R,3S)-2-(3-(5,7-difluoro-1H-benzo[d]imidazol-1-yl)propyl)piperidin-3-ol] belongs no more than 100 nM; to `O[C@H]1CCCN[C@@H]1CCCn1cnc2cc(C(F)(F)F)cc(-c3cn[nH]c3)c21` [Example 82, (2R,3S)-2-(3-(7-(1H-pyrazol-4-yl)-5-(trifluoromethyl)-1H-benzo[d]imidazol-1-yl)propyl)piperidin-3-ol], no less than 500 nM; to `O=C(O)c1cn(C/C=C/[C@H]2NCCC[C@@H]2O)c2c(Br)cccc12` [Example 203, 7-bromo-1-((E)-3-((2R,3S)-3-hydroxypiperidin-2-yl)allyl)-1H-indole-3-carboxylic acid], no less than 500 nM.

`CCN(CC)c1ncnc2c1ncn2CCC[C@H]1NCCC[C@@H]1O` [Example 138, (2R,3S)-2-(3-(6-(diethylamino)-9H-purin-9-yl)propyl)piperidin-3-ol] had an IC50 of no less than 500 nM. As for `O[C@H]1CCCN[C@@H]1CCCn1cnc2cc(-c3cn[nH]c3)ccc21` [Example 29, (2R,3S)-2-(3-(5-(1H-pyrazol-4-yl)-1H-benzo[d]imidazol-1-yl)propyl)piperidin-3-ol], the figure is no less than 500 nM; as for `O[C@H]1CCCN[C@@H]1CCCn1cnc2cnc(Cl)cc21` [Example 122, (2R,3S)-2-(3-(6-chloro-1H-imidazo[4,5-c]pyridin-1-yl)propyl)piperidin-3-ol], 100 to 500 nM.

As for `O[C@H]1CCCN[C@@H]1CCCn1cnc2cc(C(F)(F)F)cc(-c3cccc(F)c3)c21` [Example 84, (2R,3S)-2-(3-(7-(3-fluorophenyl)-5-(trifluoromethyl)-1H-benzo[d]imidazol-1-yl)propyl)piperidin-3-ol], the concentration for half-maximal inhibition (IC50) is no less than 500 nM.

`O=c1[nH]c2cc(Br)ccc2n1CCC[C@H]1NCCC[C@@H]1O` [Example 160, 5-bromo-1-(3-((2R,3S)-3-hydroxypiperidin-2-yl)propyl)-1H-benzo[d]imidazol-2(3H)-one] displayed an IC50 of no less than 500 nM.
